Assay results published in patent publication US8772237B2, “Compositions and methods for counteracting effects of reactive oxygen species and free radicals” (Ischemix, Inc., priority 1999, dated 2014).
Ends that are not written are not given here.

How the values were obtained:
[1] = system: superoxide dismutase-1 (SOD-1) mRNA; experiment: RT-PCR upregulation of SOD-1 mRNA in rat primary cortical cell cultures; type: cell-based; conditions: 10 ng/ml, 3 hours
Method: The RT-PCR method (see, for example, Innis et al., PCR Protocols: A Guide to Methods and Applications, (Academic Press, San Diego, 1990)) was used to investigate the upregulation of the specific mRNA that codes for the enzyme superoxide dismutase (SOD).
(§1) Primary cortical cultures were obtained by growing newborn rat brain cortical cells in Delbecco's modified Eagle medium supplemented with 25 μg/ml of gentamycin and 10% fetal calf serum. The cells were isolated from the E-21 cortex of rat brain, plated at a density of 1×10^5 per ml and grown to confluence within four to five days in an atmosphere containing air and 5% CO2 at 37° C. as described in Cornell-Bell et al., Science, 247: 470-473 (1990) and Cell Calcium, 12: 185-204 (1991). Cultures were grown in 20 ml flasks as a monolayer and then exposed to various concentrations of peptides for studies of the effects of peptides on upregulation of genes for SOD and CAT and on the transmigration of transcription factor AP-1 to cell nuclei.
Primary cultures of rat brain cortical cells were incubated with 100 ng/ml of peptide compound CMX-9236 for durations of 0 to 48 hours. mRNA was isolated from the cytoplasmic fraction of lysed cells according to standard methods (Angel et al., Cell 49:729-739, 1987). The RNA was incubated according to the RT-PCR protocol with two strands, 20 nucleotides long, one for the sense and one from the antisense strand. The sequences were selected to be unique for superoxide dismutase-1 (SOD-1), and to span one intron segment. […] The sequence of the two probe segments of the oligo dT segments for SOD are as follows: anti-sense strand, […] (SEQ ID NO:29), and sense strand, […] (SEQ ID NO:30). These span a sequence of 208 base pairs (bp) on the primary SOD sequence. The mixture was then treated with reverse transcriptase to obtain the cDNA according to standard PCR methods. The cDNA was then analyzed by electrophoresis and separated according to sequence lengths on a non-denaturing 5% polyacrylamide gel. The electrophoretically separated molecules were treated with ethidium bromide to stain double-stranded DNA fragments. These were visualized by ultraviolet illumination and photographed. The gels were then analyzed by a laser scanning fluorescence detector to quantitate the amount of messenger RNA for the extent of upregulation of SOD message and its time course of synthesis as a function of stimulation by CMX-9236. Similar methods of analysis were used for other peptides.

[2] = system: superoxide dismutase (SOD) protein; experiment: Western immunoblot of SOD protein in rat brain primary cortical cultures; type: cell-based; conditions: for SOD: 5 hours at 37° C.
Method: as §1, with “nuclei. […]” for “nuclei.”
(§2) Tissue culture experiments were carried out using primary cultures of rat brain cortical cells as previously described above in Example 2. Primary cultures from embryonic rat brain isolated at E-21 (21 day embryos) and incubated for five hours with various doses: 1, 10, 100 ng/ml of CMX-99672. Cytoplasmic proteins were isolated and analyzed for upregulation of SOD and CAT by Western immunoblots as described above. […] The Western blot was scanned to quantify the fold-increase in SOD production in cell cultures treated with the CMX-99672 peptide compound.
Representative peptide compounds were tested at various doses and compared for their ability to upregulate expression of genes for SOD and/or CAT in rat primary cortical cultures basically as described above. Cultures were incubated with a peptide compound for 5 hours at 37° C. Cytoplasmic protein fractions were prepared as described above. Cytoplasmic proteins were separated by gel electrophoresis and analyzed by Western immunoblots using antisera to SOD and CAT, respectively (Rockland, Inc., Gilbertsville, Pa.). […]

catalase (CAT) protein = experiment: Western immunoblot of CAT protein in rat primary cortical cultures; type: cell-based; conditions: Dose 28 pmol/ml, 5 hours at 37° C.
Method: as §2
Representative peptide compounds were tested at various doses and compared for their ability to upregulate expression of genes for SOD and/or CAT in rat primary cortical cultures basically as described above. Cultures were incubated with a peptide compound for 5 hours at 37° C. Cytoplasmic protein fractions were prepared as described above. Cytoplasmic proteins were separated by gel electrophoresis and analyzed by Western immunoblots using antisera to SOD and CAT, respectively (Rockland, Inc., Gilbertsville, Pa.).

catalase (CAT) mRNA = experiment: RT-PCR upregulation of catalase (CAT) mRNA in primary rat cortical cultures; type: cell-based; conditions: 10 ng/ml, 3 hours
Description: Peptide compounds of the invention may also upregulate mRNA for catalase (CAT). Experiments using the RT-PCR methods to detect upregulation of CAT mRNA in primary rat cortical brain cultures treated with various representative peptide compounds, i.e., CMX-9236, CMX-9963, and CMX-9967. The catalase probe duplex consisted of a sense primer having the sequence […] (SEQ ID NO:31) and antisense primer having the sequence […] (SEQ ID NO:32) flanking a 95 bp region of the CAT DNA.
Primary rat brain cortical cell cultures were incubated with 100 ng/ml of the peptide compound CMX-9236 for 0, 0.5, 1, 2, 3, 6, 12, 24, and 48 hours. […] The upregulation of CAT mRNA was maximal at 3 hours after the addition of the peptide compound, and it decreased back to control levels at 48 hours. GAPDH was the internal standard in these experiments. […] A 13-fold increase in CAT mRNA levels was observed (over control) of CAT mRNA occurred when primary rat brain cortical cultures were incubated with 100 ng/ml of CMX-9236 for 3 hours.

[3] = system: middle cerebral artery (MCA) permanent occlusion stroke model; experiment: Permanent MCA 24-hour occlusion stroke model; type: in vivo, Sprague-Dawley rats; conditions: Dose 0.05 mg/hr
[4] = system: middle cerebral artery (MCA) permanent occlusion stroke model; experiment: Permanent MCA 24-hour occlusion stroke model; type: in vivo, Sprague-Dawley rats; conditions: rat, in vivo
Method: The in vivo neuroprotective effects of CMX-9236 were investigated in both temporary and permanent occlusion stroke models in Sprague-Dawley rats using an intraluminal suture of the middle cerebral artery (MCA) occlusion method (Zea Longa et al., Stroke, 20: 84 (1989)). Briefly, a 4-0 silicone-coated suture was inserted through the right common carotid artery to block the MCA orifice. In the temporary model, CMX-9236 (6.2 mg/kg/hr) or vehicle was administered via the femoral vein at 30 minutes after the start of a 2-hour occlusion for a 4-hour continuous infusion; the rats were then reperfused by withdrawing the suture at […] after the MCA occlusion. All experiments were performed in a blinded and randomized manner, and rectal temperature was maintained at 37° C. The animals were sacrificed, and their brains were removed, sectioned into six 2-mm-thick coronal slices and stained with 2,3,5-triphenyltetrazolium chloride solution (Bederson et al., Stroke, 17:1304 (1986)) to visualize the extent of brain damage for the calculation of the corrected hemispheric infarct volumes (Nagasawa and Kogure, Stroke, 20:1037 (1989); Li et al., J. Cereb. Blood Flow Metab., 17:1132 (1997)). […] This represents a significant reduction of infarct size (35±5%, p=0.01, student t-test) for the CMX-9236-treated group in the temporary occlusion model. There was also a 58+11% improvement in the neurological scoring (Minematsu et al., Neurology, 42:235 (1992)) for the peptide-treated group versus controls at the end of 24 hours.
In the permanent occlusion stroke model, the blood flow to the MCA territory was blocked for the total 24-hour period. A continuous i.v. infusion (0.5 ml/hr) of the CMX-9236 peptide (2.04 mg/kg/hr) or vehicle was initiated at 30 minutes after occlusion for 6 hours, followed by a bolus i.v. infusion of CMX-9236 (4.0 mg/kg in 0.5 ml delivered over 10 minutes) or vehicle at 12 hours after occlusion. The corrected infarct volumes were 127.5±18 mm^3 versus 216±18 mm^3 for drug-treated animals and controls, respectively. This represents a significant decrease (41±5%, p=0.003, student t-test) in infarct size for the drug-treated group as compared to the vehicle-treated control group (n=10 per group) in the permanent model, indicating a substantial rescue of brain tissue. These findings indicate that CMX-9236 has neuroprotective properties post-trauma in vivo, reducing the brain damage generated by cerebral ischemia.

[5] = system: transcription factor AP-1; experiment: Electrophoretic mobility shift assay (EMSA) for AP-1 activation in primary rat neurons / cortical cultures; type: cell-based
Method: Nuclear extracts for electrophoretic mobility shift assays (EMSAs) were prepared as described previously (Adams et al., J. Leukocyte Biol., 62: 865-873 (1997)) using 1.0-2.0×10^7 cells per sample. All buffers were freshly supplemented with dithiothreitol (DTT, 0.5 mM), protease inhibitors: PMSF (0.5 mM), chymostatin, peptstatin-A, aprotinin, antipain, leupeptin (each at 1 μg/ml), and phosphatase inhibitors: NaF (10 mM), ZnCl2 (1 mM), sodium orthovanadate (1 mM), and sodium pyrophosphate (5 mM). Aliquots of the final dialyzates were stored at −80° C. and discarded after use.
AP-1 transcription factor activation was assayed using an electrophoretic mobility shift assay (EMSA), as described by Adams et al., J. Leukoc. Biol., 62:865-873 (1997)). Cultures of primary rat neurons (Cornell-Bell et al., Cell Calcium, 12: 185-204 (1991)) were stimulated for 3 hours with various concentrations (0, 1, 10, 100 ng/ml) of peptide CMX-9236. Nuclear extracts prepared as described above were separated by gel electophoresis on non-denaturing gels and subjected to the EMSA procedure. This EMSA used an AP-1 synthetic duplex probe (Angel, P., 1987, Cell 49:729-739) having the sequence 5′-[…] (SEQ ID NO:33) and its antisense copy (complement strand), which were end-labeled with P^32 using polynucleotide kinase and (γ-P^32)-ATP. For the EMSA reaction, the labeled probe (0.5 pmol) was mixed with 3 μg of nuclear extract protein in a solution containing 10 mM Tris-HCl, pH 7.5, 50 mM NaCl, 1 mM EDTA, 1 mM dithiothreitol, 5% glycerol, 0.02% β-mercaptoethanol, and 1 μg of poly-dI/dC (Pharmacia). Reaction mixtures were incubated at 25° C. for 20 minutes to allow complete complex formation by the duplex with its appropriate AP-1 protein. The mixture was then electrophoresed under non-denaturing conditions through 4% polyacrylamide gels in 0.5×TBE buffer (45 mM Trisma base, 45 mM boric acid, 1 mM EDTA). The gels were dried on 3 mm paper. Bands were visualized by autoradiography at −80° C. with one intensifying screen and quantified by laser densitometry. The upregulation of AP-1 and the activation and upregulation process of AP-1 was compared to control cultures.
Primary cortical cell cultures were grown to confluence and used in in vitro cultures for determining the effects of various representative peptide compounds on upregulation of AP-1. […] Extracts were prepared from the nuclei isolated from the primary culture homogenates, purified, and analyzed for the presence of specific transcription factors using the electrophoretic mobility shift assay (EMSA) method. The binding of ^32P-labeled duplex DNA probes specific for activator protein-1 (AP-1) or nuclear factor κB (NF-κB) was analyzed and quantified by autoradiography. After a 3-hour incubation of the cultures with 1 ng/ml of the peptide CMX-9236 there was a 15-fold increase of AP-1 relative to […] control cultures. […] Thus, a small peptide compound that is less than 20 amino acids long can simulate the properties of large growth factors such as NGF and BDNF, which exist as dimers of protein chains with molecular weights of 13,259 and 13,500, respectively.

[Ac]-Asp Gly Asp Gly Asp Phe Ala (Ac-DGDGDFA) [CMX-9963]
maximum increase of SOD-1 mRNA [1]: around 10 fold
SOD ([2]; Dose 6.7 pmol/ml): 1873 % Control
CAT (catalase (CAT) protein): 700 % Control
maximum increase of CAT mRNA (catalase (CAT) mRNA): ~7 fold

[Ac]-Asp Gly Asp [CMX-9967]
maximum increase of SOD-1 mRNA [1]: 6 fold
Percent Neurological Rescue [3]: 40 ± 10%
Percent Rescue (percent decrease in infarct size vs vehicle controls) [3]: 20 ± 6%
SOD ([2]; Dose 28 pmol/ml): 1220 % Control
fold-increase in SOD-1 protein (intensity of antibody binding) ([2]; cells treated 5 hours with 10 and 100 ng/ml): ≥ 20 fold
CAT (catalase (CAT) protein): 200 % Control
maximum increase of CAT mRNA (catalase (CAT) mRNA): 6 fold

KKQYKLGSKTGPGQ [CMX-9901]
neuroprotective effect in permanent MCA assay (in words) [4]: positive neuroprotective effect
activation / upregulation of AP-1 (in words) [5]: upregulated AP-1

KKETLQFR [CMX-8933, described in U.S. Pat. No. 5,545,719]
neuroprotective effect in permanent MCA assay (in words) [4]: positive neuroprotective effect
activation / upregulation of AP-1 (in words) [5]: upregulated AP-1
